What was measured:
[1] = biological target: T1, HCV NS3/4A protease complex (BMS strain) (Hepatitis C virus genotype 1a, UniProt P27958, C1454S); assay: Recombinant HCV NS3/4A protease complex FRET peptide assay, BMS strain; format: biochemical, HCV genotype 1a; settings: NS3/4A BMS Strain, activity range; read-out: IC50 a, b, c (Activity Table)
T1 construct: HCV NS3/4A protease complex (amino acids 1027 to 1711); inferred from pET21b vector and Ni-NTA purification; made in house; host or cells: Escherichia coli BL21 (DE3), pET21b
T1 sequence (P27958 1027-1657 C1454S): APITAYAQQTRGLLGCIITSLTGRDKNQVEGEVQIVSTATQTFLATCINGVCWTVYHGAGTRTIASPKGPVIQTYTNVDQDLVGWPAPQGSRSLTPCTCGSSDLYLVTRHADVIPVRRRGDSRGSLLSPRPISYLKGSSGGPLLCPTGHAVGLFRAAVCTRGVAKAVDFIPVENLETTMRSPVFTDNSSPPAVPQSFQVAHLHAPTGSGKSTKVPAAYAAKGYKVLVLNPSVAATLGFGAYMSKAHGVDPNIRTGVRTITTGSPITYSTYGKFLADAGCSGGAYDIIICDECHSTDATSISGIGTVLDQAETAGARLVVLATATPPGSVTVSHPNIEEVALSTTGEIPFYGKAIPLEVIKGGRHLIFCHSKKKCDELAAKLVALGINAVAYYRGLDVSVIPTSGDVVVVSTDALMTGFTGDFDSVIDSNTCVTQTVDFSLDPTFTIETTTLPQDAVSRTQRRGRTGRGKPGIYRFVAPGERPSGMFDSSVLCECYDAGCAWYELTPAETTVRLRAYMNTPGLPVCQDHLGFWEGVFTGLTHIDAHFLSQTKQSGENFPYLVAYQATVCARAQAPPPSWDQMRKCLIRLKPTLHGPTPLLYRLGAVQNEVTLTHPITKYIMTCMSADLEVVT
T1 sequence (P27958 1658-1711 partner, looked up, stated change not applied): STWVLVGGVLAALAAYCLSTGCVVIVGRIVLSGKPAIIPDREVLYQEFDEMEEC
Description: Recombinant HCV NS3/4A Protease Complex FRET Peptide Assay
The purpose of this in vitro assay was to measure the inhibition of HCV NS3 protease complexes, derived from the BMS, H77C or J4l6S strains, as described below, by compounds of the present invention. This assay provides an indication of how effective compounds of the present invention would be in inhibiting HCV proteolytic activity.
Serum from an HCV-infected patient was obtained from Dr. T. Wright, San Francisco Hospital. An engineered full-length cDNA template of the HCV genome (BMS strain) was constructed from DNA fragments obtained by reverse transcription-PCR (RT-PCR) of serum RNA and using primers selected on the basis of homology between other genotype la strains. From the determination of the entire genome sequence, a genotype la was assigned to the HCV isolate according to the classification of Simmonds et al. (See P Simmonds, K A Rose, S Graham, S W Chan, F McOmish, B C Dow, E A Follett, P L Yap and H Marsden, J. Clin. Microbiol., 31(6), 1493-1503 (1993)). […] The infectious clones, H77C (1a genotype) and J4 L6S (1b genotype) were obtained from R. Purcell (NIH) and the sequences are published in Genbank (AAB67036, see Yanagi, M., Purcell, R. H., Emerson, S. U. and Bukh, J. Proc. Natl. Acad. Sci. U.S.A. 94(16),8738-8743 (1997); AF054247, see Yanagi, M., St Claire, M., Shapiro, M., Emerson, S. U., Purcell, R. H. and Bukh, J, Virology 244 (1), 161-172. (1998)).
The BMS, H77C and J4 L6S strains were used for production of recombinant NS3/4A protease complexes. DNA encoding the recombinant HCV NS3/4A protease complex (amino acids 1027 to 1711) for these strains were manipulated as described by P. Gallinari et al. (see Gallinari P, Paolini C, Brennan D, Nardi C, Steinkuhler C, De Francesco R. Biochemistry. 38(17):5620-32, (1999)). Briefly, a three-lysine solubilizing tail was added at the 3′-end of the NS4A coding region. The cysteine in the P1 position of the NS4A-NS4B cleavage site (amino acid 1711) was changed to a glycine to avoid the proteolytic cleavage of the lysine tag. Furthermore, a cysteine to serine mutation was introduced by PCR at amino acid position 1454 to prevent the autolytic cleavage in the NS3 helicase domain. The variant DNA fragment was cloned in the pET21b bacterial expression vector (Novagen) and the NS3/4A complex was expressed in Escherichia coli strain BL21 (DE3) (Invitrogen) following the protocol described by P. Gallinari et al. (see Gallinari P, Brennan D, Nardi C, Brunetti M, Tomei L, Steinkuhler C, De Francesco R., J Virol. 72(8):6758-69 (1998)) with modifications. Briefly, NS3/4A expression was induced with 0.5 mM Isopropyl β-D-1-thiogalactopyranoside (IPTG) for 22 hr at 20° C. A typical fermentation (10 L) yielded approximately 80 g of wet cell paste. The cells were resuspended in lysis buffer (10 mL/g) consisting of 25 mM N-(2-Hydroxyethyl)Piperazine-N′-(2-Ethane Sulfonic acid) (HEPES), pH7.5, 20% glycerol, 500 mM Sodium Chloride (NaCl), 0.5% Triton-X100, 1 ug/ml lysozyme, 5 mM Magnesium Chloride (MgCl2), 1 ug/ml DnaseI, 5 mM β-Mercaptoethanol (βME), Protease inhibitor—Ethylenediamine Tetraacetic acid (EDTA) free (Roche), homogenized and incubated for 20 mins at 4° C. The homogenate was sonicated and clarified by ultra-centrifugation at 235000 g for lhr at 4° C. Imidazole was added to the supernatant to a final concentration of 15 mM and the pH adjusted to 8.0. The crude protein extract was loaded on a Nickel—Nitrilotriacetic acid (Ni—NTA) column pre-equilibrated with buffer B (25 mM HEPES, pH8.0, 20% glycerol, 500 mM NaCl, 0.5% Triton-X100, 15 mM imidazole, 5 mM βME). The sample was loaded at a flow rate of 1 mL/min. The column was washed with 15 column volumes of buffer C (same as buffer B except with 0.2% Triton-X100). The protein was eluted with 5 column volumes of buffer D (same as buffer C except with 200 mM Imidazole). […]

[2] = test system: HCV replicon in Huh7 cells; assay: HCV replicon cell-based assay (FRET); parameters: species or system HCV strain 1B; settings: Hepatitis C virus, Huh-7; replicon, activity range; read-out: EC50 a, b, c (Activity Table)
Description: HCV Replicon Cell-based Assay
An HCV replicon whole cell system was established as described by Lohmann V, Korner F, Koch J, Herian U, Theilmann L, Bartenschlager R., Science 285(5424): 110-3 (1999). This system enabled us to evaluate the effects of our HCV Protease compounds on HICV RNA replication. Briefly, using the HCV strain 1B sequence described in the Lohmann paper (Assession number: AJ238799), an HCV cDNA was generated encoding the 5′ internal ribosome entry site (IRES), the neomycin resistance gene, the EMCV (encephalomyocarditis virus)-IRES and the HCV nonstructural proteins, NS3-NS5B, and 3′ non-translated region (NTR). In vitro transcripts of the cDNA were transfected into the human hepatoma cell line, Huh7. […] Resulting cell lines were characterized for positive and negative strand RNA production and protein production over time.
Huh7 cells, constitutively expressing the HCV replicon, were grown in Dulbecco's Modified Eagle Media (DMEM) containing 10% Fetal calf serum (FCS) and 1 mg/ml G418 (Gibco-BRL). Cells were seeded the night before (1.5×10^4 cells/well) in 96-well tissue-culture sterile plates. Compound and no compound controls were prepared in DMEM containing 4% FCS, 1:100 Penicillin/Streptomysin, 1:100 L-glutamine and 5% DMSO in the dilution plate (0.5% DMSO final concentration in the assay). Compound/DMSO mixes were added to the cells and incubated for 4 days at 37° C. After 4 days, plates were rinsed thoroughly with Phosphate-Buffered Saline (PBS) (3 times 150 μl). The cells were lysed with 25 μl of a lysis assay reagent containing the FRET peptide (RET S1, as described for the in vitro enzyme assay). The lysis assay reagent was made from 5× cell Luciferase cell culture lysis reagent(Promega #E153A) diluted to 1× with distilled water, NaCl added to 150 mM final, the FRET peptide diluted to 10 μM final from a 2 mM stock in 100% DMSO. The plate was then placed into the Cytofluor 4000 instrument which had been set to 340 nm excitation/490 emission, automatic mode for 21 cycles and the plate read in a kinetic mode. EC50 determinations were carried out as described for the IC50 determinations.

Work on `C=CC1C[C@]1(NC(=O)[C@@H]1C[C@@H](Oc2cc(-c3ccccc3)nc3cc(OC)ccc23)CN1C(=O)[C@@H](NC(=O)OC(C)(C)C)C(C)(C)C)C(=O)NS(=O)(=O)c1ccc([N+](=O)[O-])s1` (stereo in doubt) [Compound 3, (1-{4-(7-Methoxy-2-phenylquinolin-4-yloxy)-2-[1-(5-Nitrothiophene-2-sulfonylaminocarbonyl)-2-vinyl-cyclopropylcarbamoyl]pyrrolidine-1-carbonyl}-2,2-dimethylpropyl)carbamic acid tert-butyl ester] yielded an IC50 [1] of 100 to 1000 nM and an EC50 [2] of 100 to 1000 nM.

In the case of `C=CC1C[C@]1(NC(=O)[C@@H]1C[C@@H](Oc2cc(-c3ccccc3)nc3cc(OC)ccc23)CN1C(=O)[C@@H](NC(=O)OC(C)(C)C)C(C)(C)C)C(=O)NS(=O)(=O)c1cc(Cl)c(Cl)s1` (stereo in doubt) [Compound 8, {1-[2-{1-[4,5-dichlorothiophene-2-sulfonylaminocarbonyl]-2-vinylcyclopropylcarbamoyl}-4-(7-methoxy-2-phenyl-quinolin-4-yloxy)pyrrolidine-1-carbonyl]-2,2-dimethylpropyl}carbamic acid tert-butyl ester], the IC50 [1] is reported as < 100 nM and the EC50 [2] is reported as 100 to 1000 nM.

Compound `C=CC1C[C@]1(NC(=O)[C@@H]1C[C@@H](Oc2cc(-c3ccccc3)nc3cc(OC)ccc23)CN1C(=O)[C@@H](NC(=O)OC(C)(C)C)C(C)(C)C)C(=O)NS(=O)(=O)c1nc2ccc(OCC)cc2s1` (stereo in doubt) [Compound 15, {1-[2-[1-(6-Ethoxybenzothiazole-2-sulfonylaminocarbonyl)-2-vinyl-cyclopropylcarbamoyl]-4-(7-methoxy-2-phenyl-quinolin-4-yloxy)-pyrrolidine-1-carbonyl]-2,2-dimethylpropyl}-carbamic acid tert-butyl ester] has an IC50 [1] of 100 to 1000 nM and an EC50 [2] of 1000 to 10000 nM.

`C=CC1C[C@]1(NC(=O)[C@@H]1C[C@@H](Oc2cc(-c3ccccc3)nc3cc(OC)ccc23)CN1C(=O)[C@@H](NC(=O)OC(C)(C)C)C(C)(C)C)C(=O)NS(=O)(=O)c1cc(Br)c(Cl)s1` (stereo in doubt) [Compound 7, {1-[2-{1-[4-Bromo-5-chlorothiophene-2-sulfonylamino-carbonyl]-2-vinylcyclopropylcarbamoyl}-4-(7-methoxy-2-phenyl-quinolin-4-yloxy)pyrrolidine-1-carbonyl]-2,2-dimethylpropyl}carbamic acid tert-butyl ester] was tested, and the IC50 [1] was < 100 nM and the EC50 [2] was 1000 to 10000 nM.

For `C=CC1C[C@]1(NC(=O)[C@@H]1C[C@@H](Oc2cc(-c3ccccc3)nc3cc(OC)ccc23)CN1C(=O)[C@@H](NC(=O)OC(C)(C)C)C(C)(C)C)C(=O)NS(=O)(=O)c1cc([N+](=O)[O-])c(Cl)s1` (stereo in doubt) [Compound 16, {1-[2-[1-(5-Chloro-4-nitro-thiophene-2-sulfonylaminocarbonyl)-2-vinylcyclopropylcarbamoyl]-4-(7-methoxy-2-phenyl-quinolin-4-yloxy)-pyrrolidine-1-carbonyl]-2,2-dimethyl-propyl}carbamic acid tert-butyl ester], the IC50 [1] was < 100 nM and the EC50 [2] was 100 to 1000 nM.

With `C=CC1C[C@]1(NC(=O)[C@@H]1C[C@@H](Oc2cc(-c3ccccc3)nc3cc(OC)ccc23)CN1C(=O)[C@@H](NC(=O)OC(C)(C)C)C(C)(C)C)C(=O)NS(=O)(=O)c1sc(C)nc1C` (stereo in doubt) [Compound 9, {1-[2-{1-[2,4-dimethylthiazole-5-sulfonylaminocarbonyl]-2-vinylcyclopropylcarbamoyl}-4-(7-methoxy-2-phenyl-quinolin-4-yloxy)pyrrolidine-1-carbonyl]-2,2-dimethylpropyl}carbamic acid tert-butyl ester] the IC50 [1] was < 100 nM and the EC50 [2] was 100 to 1000 nM.

For `C=CC1C[C@]1(NC(=O)[C@@H]1C[C@@H](Oc2cc(-c3ccccc3)nc3cc(OC)ccc23)CN1C(=O)[C@@H](NC(=O)OC(C)(C)C)C(C)(C)C)C(=O)NS(=O)(=O)c1ccc(-c2cc(C(F)(F)F)nn2C)s1` (stereo in doubt) [Compound 17, [1-(4-(7-Methoxy-2-phenyl-quinolin-4-yloxy)-2-{1-[5-(2-methyl-5-trifluoromethyl-2H-pyrazol-3-yl)thiophene-2-sulfonylaminocarbonyl]-2-vinyl-cyclopropylcarbamoyl}-pyrrolidine-1-carbonyl)-2,2-dimethylpropyl]carbamic acid tert-butyl ester], the IC50 [1] was < 100 nM and the EC50 [2] was 100 to 1000 nM.

— patent US6869964B2, “Heterocyclicsulfonamide hepatitis C virus inhibitors” (Bristol-Myers Squibb Company, priority 2002, dated 2005)
